# According to patent publication US8969549B2, “Antioxidant small molecules aimed at targeting metal-based oxidative stress in neurogenerative disorders” (Texas Christian University, priority 2013, dated 2015):
# Key:
# HT-22 cells = assay: Aβ and Cu^+2 toxicity protection (MTT); type: cell-based, mouse; settings: compound 50 to 120 μM, Aβ 15 μM, copper 15 μM
# Method: In FIG. 16 one can observe that compound 2 (LC) is capable of protection from ranges of 50 to 120 μM reaching 37% of increase of cell proliferation with respect to the control (Aβ+Cu^+2). It is also shown that Aβ toxicity (15 μM) increases upon addition of copper (15 μM) opening the possibility of explaining the mechanism of action of LC (compound 2) which involves the possible chelation of copper out of the plaques, although the possibility of assessing ROS is always present. The experiment is completed with several controls including just compound 2, (Chart 4) and just copper, for comparison purposes.
# The same analysis was performed for compound 3, (Chart 4), keeping the same ranges of concentrations for the compound (50 to 120 μM) as well as amyloid and copper. Restoring of cell proliferation was observed from 3 to 17%. […]
# (§1) (3-(4,5-dimethylthiazol-2-yl)-2,5-diphenyltetrazolium bromide) cells were seeded in a 96 well plate with a density of 5000 cells per well (in 100 μL per well). […] Media is discarded again and 100 μL of DMSO are added to each well, rocked for 5 minutes and the absorbance (A510) was measured using a Molecular Devices Kinetic Microplate Reader.
# [1] = DPPH radical quenching assay; type: biochemical; settings: 1250 μM
# From the text: (§2) Compound 2 (Chart 2) exists largely as the pyridol tautomer as confirmed by NMR. The reactivity of pyridol/pyridone based compounds such as chelidamic acid have shown reactivity with OH radicals in solution to form bis-pyridones and is a different mechanism than pyridine based compounds such as 1 (Chart 2). This reactivity is attributed to the enhanced antioxidant capacity observed. Chelidamic acid is the pyridone congener to the starting material used to produce 1. Therefore similar methodologies to produce 2 in gram scale quantities were employed.
# As radicals are one product of miscompartmentalized metal ions, radical scavenging capability of compounds 1-3 (Chart 4) was tested using the DPPH assay. DPPH (2,2-diphenyl-1-picrylhydrazyl), is a dark purple (λmax=540 nm), stable free radical in solution that can be reduced to DPPHH in the presence of molecules with radical scavenging activity. This process results in a color change from dark purple to light yellow and can be followed spectroscopically by the decrease of the band at 540 nm. Applicants have, therefore, utilized this method to measure radical scavenging capability of their own organic molecules. BHT (butylhydroxytoluene) was used as a positive control due to its known antioxidant properties.
# DPPH stock solution was prepared by dissolving 25 mg in 100 mL of absolute EtOH. The working radical solution was prepared by dilution with absolute EtOH to an absorbance of 1.3 at 512 nm. Stock solutions of the compounds tested were dissolved in DI H2O and EtOH 95% respectively and serial dilutions were made to get different concentrations. For the analysis 2 mL of the solutions were incubated with 2 mL of DPPH working solutions in the dark for 24 h. as well as 2 mL of DPPH working solution with 2 mL of H2O or EtOH to serve as blank. Analysis of the solutions was performed as follows: 1 mL of the sample solution was diluted with 1 mL of H2O shaken and the absorbance was measured at 515 nm.
# MTT cytotoxicity assay = type: cell-based; settings: mouse, HT-22 hippocampal neuronal cells, HT-22 cells
# Method: As these compounds show potential for future in vivo studies, the 3-(4,5-dimethythiazol-2-yl)-2,5-diphenyl tetrazolium bromide (MTT) assay was performed in order to test compounds 2, 3 of Chart 4 for cytotoxicity with HT-22 cells, which is a hippocampal neuronal cell line extracted from mice. This is a colorimetric assay that measures the mitochondrial activity of living cells in which MTT crosses into the mitochondria where it is reduced to media insoluble formazan (dark purple), which is later solubilized in DMSO and measured spectroscopically (λmax=540 nm). Since the reduction of MTT can only occur in living cells with undamaged mitochondria, this is a good assay to measure cell proliferation and cytotoxicity.
# For the biological assays mouse hippocampal HT-22 cell line was used, incubated them at 37° C. in a humidified atmosphere 5% CO2, with Dulbecco's Modified Eagle Medium (500 ml) containing penicillin/streptomycin 100× (5 ml), Glutamine (100 mM, 5 ml), charcoal strip fetal bovine serum. […]
# as §1
# [2] = LA/DHLA; cited from earlier work
# [3] = cited from earlier work
# FRDA cells [4] = assay: DCFH-DA ROS assay with BSO; type: cell-based, human; settings: 12 hours BSO 1 mM, compound 4 nM
# Method: FIG. 6 is a graph showing DCFH-DA fluorescent response in FRDA cells after 12 hours exposure to BSO [1 mM] with 1-4 [4 nM].
# FIG. 7 is a graph of DCFH-DA fluorescent response in FRDA cells after 12 hours exposure to BSO [1 mM] showing dose dependence with 1.
# FIG. 9 is a graph of DCFH-DA fluorescent response in FRDA cells after 12 hours exposure to BSO [1 mM] showing dose dependence with 1 and 2.
# The antioxidant activity of compound 1 compared to compounds 2-3 (Chart 1) was then studied using the cell-permeable fluorophore 2,7′-Dichlorodihydrofluorescin diacetate (DCFH-DA) as an indicator for ROS. DCFH-DA diffuses into cells and is deacetylated by cellular esterases to non-fluorescent 2′,7′-Dichlorodihydrofluorescin (DCFH). This species is subsequently oxidized to the highly fluorescent 2′,7′-Dichlorodihydrofluorescein (DCF) species in the presence of ROS. The fluorescent intensity is directly proportional to the amount of ROS present in cell cytosol. BSO (2-amino-4-(butylsulfonimidoyl)butanoic acid) was used to inhibit the first step of de novo glutathione synthesis, allowing us to observe the elevated intra-cellular [ROS] are thereby observed.
# Cellular studies were carried out to evaluate the intra-cellular antioxidant efficacy and toxicity of compound 2 (Chart 2) compared to 1 using the cell-permeable fluorophore 2,7′-dichlorodihydrofluorescin diacetate (DCFH-DA) as an indicator for ROS. DCFH-DA diffuses into cells and is deacetylated by cellular esterases to non-fluorescent 2′,7′-dichlorodihydrofluorescin (DCFH) which is subsequently oxidized to the highly fluorescent 2′,7′-dichlorodihydrofluorescein (DCF) species in the presence of ROS. The fluorescence intensity is directly proportional to the amount of ROS present in cell cytosol.^11 BSO (2-amino-4-(butylsulfonimidoyl)butanoic acid) is a commonly used model for oxidative stress via inhibition of cytosolic glutathione synthesis resulting in elevated intra-cellular [ROS] and an increased fluorescent signal in the presence of DCFH (FIG. 9).
# [5] = log K constants with Zn^II; type: binding
# From the text: (§3) The ligand is the backbone to PCTA, a potential MRI contrast agent explored in recent years and has been repurposed for Applicant's work.
# [6] = log K constants with Cu^II; type: binding
# From the text: as §3
# FRDA cells [7] = assay: Calcein AM viability assay with BSO; type: cell-based, human; settings: Homo sapiens, 48 hour BSO 1 mM, compound 1 nM final, read-out: cell viability compared to untreated control cells
# Method: FIG. 5 is a graph showing a Calcien AM viability assay of FRDA cells after 48 hour exposure to BSO [1 mM] with 1-4 [1 nM final].
# FIG. 10 is a graph showing Calcein AM viability assay of FRDA cells after 48 hour exposure to BSO [1 mM] followed by addition of 2 [various concentrations].
# FRDA cells have higher levels of ROS due to mitochondrial misfunction associated with frataxin expression and therefore serve as a good model for ROS protection. […] Calcein AM, a non-fluorescent, hydrophobic compound that easily permeates intact, live cells, was used as an indicator for cell viability.
# This dose response is visualized in the fluorescent cell images shown in FIG. 11 with increased cell survival corresponding to increasing 2 in the nM range.
# amyloid aggregates = assay: TEM imaging of copper-induced amyloid aggregates; type: biochemical; settings: incubated 12 hours
# Method: FIG. 3 is an illustration of TEM Images showing (a) copper induced aggregation of amyloid and (b) its dissolution by 1.
# Transmission electron microscopy (TEM) and Scanning Electron Microscopy (SEM) were utilized to study the morphology of the aggregates with and without chelators, as well. […] Aliquots from the stock used to make grid (a) were then incubated with 1 for 12 hours and then prepared for microscopy. The sizes of the aggregates upon treatment with 1 are an average of 1-2 orders of magnitude smaller and observably more diffuse, as shown in grid (b). SEM images also confirm the ability of the chelates to affect aggregate size as well.
# [8] = Cu-ascorbate redox system with coumarin-3-carboxylic acid (CCA); type: biochemical
# From the text: As increased levels of ROS are associated with AD, Applicant's set out to investigate the antioxidant character of 1 compared to the heterocycles 2 and/or 3. […] Moreover, many of the pathways proposed to produce ROS leading to AD pathology involve metal ions. Applicant's therefore utilized the Cu-ascorbate redox system, Scheme 1, as a model to determine if the ligands could halt copper based redox activity under aerobic conditions:
# Faller and co-workers employed this system to investigate the redox chemistry of amyloid systems with Cu. Coumarin-3-carboxylic acid (CCA), which generates fluorescent 7-hydroxy-CCA in the presence of hydroxyl radicals, was used to quantify the reduction of oxygen by copper redox-cycling in the presence of ascorbate.
# Aβ1-40 [9] = assay: Tyr^10 fluorescence of Aβ1-40; type: biochemical
# From the text: FIG. 2 is a graph showing the addition of ligands 1-4 to aggregated Aβ results in reconstitution of Tyr^10 fluorescence which was decreased due to aggregate formation.
# To further determine the capability of 1 to prevent or disrupt metal-ion induced amyloid aggregation, Applicant's studied Tyr fluorescence intensity. Recent reports have also utilized the natural fluorescence of the native Tyr^10 in the Aβ1-40 sequence to study the conformational dynamics of amyloid folding as it relates to AD and/or production of H2O2. As Tyr^10 is located within proximity to the metal binding pocket in Aβ1-40 the fluorescence intensity of the phenolic side chain decreases during the folding process due to environmental changes that occur locally. This work was supported by circular dichroism spectra, which verified that fluorescence intensity decreased as the conformation of amyloid changed to beta-sheets. […] Applicant's hypothesis was that Tyr fluorescence intensity should be restored to control levels upon addition of compounds 1-4 (Chart 1) to a solution of pre-formed metal aggregates, as shown below in FIG. 2. […] Similar results were also obtained for amyloid samples co-incubated with 1-4 prior to metal ion addition.
# The macrocyclic compound 2 (Chart 2) is also a chelator capable of preventing metal-induced amyloid formation as well as disaggregation. Metal ions bind to a histidine rich domain in amyloid producing Aβ in the form of insoluble plaques. This process has been extensively studied and described in a number of recent reviews. […] Moreover, amyloid aggregates formed by metal ion co-incubation can be disaggregated by the addition of compounds 1 or 2 (FIG. 12b).
# [10] = ABTS radical assay standardized against Trolox; type: biochemical; settings: ligand concentration 100 μM
# Aβ1-40 [11] = assay: Turbidity assay of metal-induced amyloid aggregation; type: biochemical; settings: for disaggregation of pre-formed metal-induced Aβ1-40 aggregates (turbidity): copper(II) or zinc(II) aggregates, ligand added afterwards
# From the text: Metal ions (copper and zinc) bind to a histidine rich domain in amyloid producing Aβ in the form of insoluble plaques. This process has been comprehensively studied and described in a number of recent reviews. The aggregation of amyloid can be followed by simple spectroscopic techniques such as turbidity and tyrosine fluorescence studies. These methods were used to investigate the ability of 1 to dissociate pre-formed amyloid aggregates upon addition of metal ions, as well as prevent amyloid aggregation.
# Metal ions bind to a histidine rich domain in amyloid producing Aβ in the form of insoluble plaques. This process has been extensively studied and described in a number of recent reviews.
# two separate cell lines = assay: Preliminary cell-viability screen; type: cell-based
# From the text: as §2
smiles,measurement,setting,value
"O=C(CCCCC1CCSS1)N1CCNCCNCCNCC1 (racemic) [Compound 2 (Chart 4), (±)-5-(1,2-dithiolan-3-yl)-1-(1,4,7,10-tetraazacyclododecan-1-yl)pentan-1-one]",increase of cell proliferation with respect to the control (Aβ+Cu^+2),HT-22 cells,37%
same,quenching of the DPPH radical,[1],equivalent amount of radical
same,EC50 at 48 h,MTT cytotoxicity assay,312 µM
"O=C(O)CCCC[C@@H](S)CCS (racemic) [DHLA, dihydrolipoic acid]",redox potential,[2],−320 mV
same,pKa,[3],4.7
"c1cc2nc(c1)CNCCNCCNC2 [1 (Chart 1), pyclen]",increase of ROS over the negative control (media),FRDA cells [4],15%
same,log K constants Zn^II,[5],14
same,log K constants Cu^II,[6],20
same,viability at 0.001 µM,FRDA cells [7],> 85%
same,decrease of amyloid aggregate size compared to the copper aggregates (TEM),amyloid aggregates,1-2 orders of magnitude
same,"OH. generation measured as 7-hydroxy-CCA fluorescence, ligand co-incubated","[8]; CCA 100 uM, ascorbate 300 uM, Cu^II 40 uM",prevented entirely
same,7-hydroxy-CCA signal after addition to running Cu-ascorbate system,[8]; added after two minutes co-incubation with CCA,leveling of the 7-hydroxy-CCA signal
same,reconstitution of Tyr^10 fluorescence of aggregated Aβ1-40,Aβ1-40 [9]; ligand added to pre-formed metal aggregates,equally effective
same,prevention of loss of Tyr^10 fluorescence of Aβ1-40,"Aβ1-40 [9]; ligand co-incubated prior to metal ion addition, 24 hours",equally effective
same,Trolox equivalents (ABTS radical),[10],0.4 Trolox equivalents
same,disaggregation of pre-formed metal-induced Aβ1-40 aggregates (turbidity),Aβ1-40 [11],reversed
same,disaggregation of pre-formed metal-induced Aβ1-40 aggregates (turbidity),Aβ1-40 [11]; listed as 1 (Chart 2),disaggregated
same,prevention of metal-induced Aβ1-40 aggregation (turbidity),Aβ1-40 [11]; ligand co-incubated with amyloid before copper(II) or zinc(II) addition,prevents formation of aggregations
same,tolerance in cell-viability screen,two separate cell lines,large degree of tolerance
